Measurements taken from ChEMBL document CHEMBL4265889, “Design and synthesis of tetrahydropyridopyrimidine based Toll-Like Receptor (TLR) 7/8 dual agonists” (Bioorg Med Chem Lett, 2018).
Blank lines part the entries; values can stand above or below the compound they belong to.

What was measured:
[1] = target: T1, Toll-like receptor 8 (Homo sapiens) (UniProt Q9NR97); experiment: Agonist activity at human TLR8 expressed in HEK293 cells after 6 hrs by NFkappaB-luciferase reporter gene assay; assay type: cell-based
T1 sequence (whole entry): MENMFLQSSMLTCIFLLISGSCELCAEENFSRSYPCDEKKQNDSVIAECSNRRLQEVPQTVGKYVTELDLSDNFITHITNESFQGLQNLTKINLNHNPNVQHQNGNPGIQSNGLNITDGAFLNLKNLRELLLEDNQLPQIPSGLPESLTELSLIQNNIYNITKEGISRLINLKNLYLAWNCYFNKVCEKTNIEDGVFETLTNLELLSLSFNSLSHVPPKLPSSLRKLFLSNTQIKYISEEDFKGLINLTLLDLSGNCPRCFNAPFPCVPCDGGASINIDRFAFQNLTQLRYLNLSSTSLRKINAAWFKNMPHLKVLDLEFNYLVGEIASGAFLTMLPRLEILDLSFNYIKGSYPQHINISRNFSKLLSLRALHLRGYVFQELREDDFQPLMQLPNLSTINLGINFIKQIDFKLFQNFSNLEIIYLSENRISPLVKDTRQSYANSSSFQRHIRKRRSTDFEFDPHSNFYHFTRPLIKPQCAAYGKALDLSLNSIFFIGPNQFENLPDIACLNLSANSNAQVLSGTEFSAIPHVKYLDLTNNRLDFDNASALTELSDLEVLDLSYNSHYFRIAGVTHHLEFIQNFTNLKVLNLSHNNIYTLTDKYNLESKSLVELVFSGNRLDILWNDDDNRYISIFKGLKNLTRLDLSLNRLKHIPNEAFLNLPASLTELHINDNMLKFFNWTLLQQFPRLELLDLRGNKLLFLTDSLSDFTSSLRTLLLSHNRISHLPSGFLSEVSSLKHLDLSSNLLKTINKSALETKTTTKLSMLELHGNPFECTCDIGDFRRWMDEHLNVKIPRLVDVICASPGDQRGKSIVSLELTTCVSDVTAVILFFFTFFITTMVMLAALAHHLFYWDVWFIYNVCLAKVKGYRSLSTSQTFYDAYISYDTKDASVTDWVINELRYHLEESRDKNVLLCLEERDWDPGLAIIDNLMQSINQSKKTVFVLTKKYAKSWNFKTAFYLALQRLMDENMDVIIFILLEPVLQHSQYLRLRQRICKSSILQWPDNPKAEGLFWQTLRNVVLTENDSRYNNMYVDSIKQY

[2] = Drug metabolism in human liver microsomes at 1 uM after 15 mins; assay type: ADME, microsome; conditions: read-out: Drug metabolism
[3] = target: T2, Toll-like receptor 7 (Homo sapiens) (UniProt Q9NYK1); experiment: Agonist activity at human TLR7 expressed in HEK293 cells after 6 hrs by NFkappaB-luciferase reporter gene assay; assay type: cell-based
T2 sequence (whole entry): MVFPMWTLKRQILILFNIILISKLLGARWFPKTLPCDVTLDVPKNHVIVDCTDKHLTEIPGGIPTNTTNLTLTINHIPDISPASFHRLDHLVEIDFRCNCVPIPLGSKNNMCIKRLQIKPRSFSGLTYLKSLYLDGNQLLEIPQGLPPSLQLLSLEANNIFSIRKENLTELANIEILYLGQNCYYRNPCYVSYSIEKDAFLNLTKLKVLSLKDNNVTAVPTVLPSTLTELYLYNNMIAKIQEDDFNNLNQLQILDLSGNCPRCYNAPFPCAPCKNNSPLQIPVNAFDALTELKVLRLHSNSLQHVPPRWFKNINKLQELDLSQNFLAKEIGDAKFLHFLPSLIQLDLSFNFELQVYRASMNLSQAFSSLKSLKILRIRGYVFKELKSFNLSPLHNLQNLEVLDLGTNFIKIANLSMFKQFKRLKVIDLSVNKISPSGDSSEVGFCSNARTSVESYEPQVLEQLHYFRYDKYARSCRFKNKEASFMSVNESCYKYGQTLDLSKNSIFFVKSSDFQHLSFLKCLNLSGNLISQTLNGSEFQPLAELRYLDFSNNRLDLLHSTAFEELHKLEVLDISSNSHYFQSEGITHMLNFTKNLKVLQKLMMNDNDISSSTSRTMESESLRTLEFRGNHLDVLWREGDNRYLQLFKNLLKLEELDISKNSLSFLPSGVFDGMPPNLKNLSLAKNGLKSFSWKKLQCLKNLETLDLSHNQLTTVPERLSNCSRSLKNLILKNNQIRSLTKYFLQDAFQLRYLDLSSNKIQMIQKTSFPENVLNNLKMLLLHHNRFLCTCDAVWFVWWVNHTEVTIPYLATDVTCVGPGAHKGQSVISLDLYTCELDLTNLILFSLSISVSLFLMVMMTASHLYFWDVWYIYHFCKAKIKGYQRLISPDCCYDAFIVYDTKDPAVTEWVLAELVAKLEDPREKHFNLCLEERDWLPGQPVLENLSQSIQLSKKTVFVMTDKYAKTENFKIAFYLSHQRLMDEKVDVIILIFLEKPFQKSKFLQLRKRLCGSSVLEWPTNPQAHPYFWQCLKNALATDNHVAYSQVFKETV

[4] = target: Voltage-gated inwardly rectifying potassium channel KCNH2 (Homo sapiens, UniProt Q12809); experiment: Displacement of 3H-dofetilide from human ERG
Voltage-gated inwardly rectifying potassium channel KCNH2, sequence (Q12809 whole entry): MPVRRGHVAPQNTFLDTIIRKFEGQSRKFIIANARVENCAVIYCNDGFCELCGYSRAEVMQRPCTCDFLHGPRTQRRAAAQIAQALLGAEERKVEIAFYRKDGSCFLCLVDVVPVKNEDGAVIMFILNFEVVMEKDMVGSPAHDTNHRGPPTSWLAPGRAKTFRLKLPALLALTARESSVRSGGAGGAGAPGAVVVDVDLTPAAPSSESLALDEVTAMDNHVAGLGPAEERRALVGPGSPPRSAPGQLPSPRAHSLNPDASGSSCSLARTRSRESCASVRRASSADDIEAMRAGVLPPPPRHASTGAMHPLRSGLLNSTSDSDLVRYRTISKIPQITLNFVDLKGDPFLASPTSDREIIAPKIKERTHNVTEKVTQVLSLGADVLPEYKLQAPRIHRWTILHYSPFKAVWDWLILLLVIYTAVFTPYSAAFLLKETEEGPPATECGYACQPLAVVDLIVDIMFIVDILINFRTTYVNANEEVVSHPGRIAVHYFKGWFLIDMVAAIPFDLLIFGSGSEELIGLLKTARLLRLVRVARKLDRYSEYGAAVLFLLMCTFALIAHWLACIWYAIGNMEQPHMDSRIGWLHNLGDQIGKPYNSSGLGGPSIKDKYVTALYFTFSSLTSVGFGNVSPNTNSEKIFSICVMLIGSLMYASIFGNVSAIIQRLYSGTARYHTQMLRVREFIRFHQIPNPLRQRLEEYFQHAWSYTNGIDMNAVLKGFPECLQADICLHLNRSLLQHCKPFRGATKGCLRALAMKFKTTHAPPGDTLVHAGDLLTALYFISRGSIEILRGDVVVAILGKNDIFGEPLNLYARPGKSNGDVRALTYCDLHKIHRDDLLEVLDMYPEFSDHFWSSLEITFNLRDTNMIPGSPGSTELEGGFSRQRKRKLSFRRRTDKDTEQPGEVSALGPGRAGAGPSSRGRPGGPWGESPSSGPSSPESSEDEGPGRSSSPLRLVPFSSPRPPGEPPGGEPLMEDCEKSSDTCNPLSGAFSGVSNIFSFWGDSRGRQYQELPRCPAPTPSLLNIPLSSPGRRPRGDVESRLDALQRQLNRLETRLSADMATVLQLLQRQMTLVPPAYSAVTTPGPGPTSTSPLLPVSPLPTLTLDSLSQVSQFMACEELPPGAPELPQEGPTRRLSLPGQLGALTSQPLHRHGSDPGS

[5] = Cytotoxicity against HEK293 cells transfected with the CMV-TLR7 construct assessed as reduction in cell viability after 6 hrs by ATPlite assay; assay type: cell-based; conditions: human
[6] = Drug metabolism in mouse liver microsomes at 1 uM after 15 mins; assay type: ADME, microsome; conditions: read-out: Drug metabolism
[7] = target: T2, Toll-like receptor 7 (Homo sapiens); experiment: Agonist activity at TLR7 in human PBMC assessed as suppression of HCV replicon replication in human HuH7 luc/neo cells harboring RNA encoding bicistronic expression construct comprising wild type HCV type 1b NS3-NS5B regions exposed to conditioned media from compound treated PBMCs after 24 hrs by luciferase reporter gene assay; assay type: cell-based
Homo sapiens = species on record: Homo sapiens; experiment: Selectivity index, ratio of MEC for human TLR8 to MEC for human TLR7

SMILES: CCCC[C@@H](CCO)Nc1nc(N)nc2c1CN(C(=O)c1csc(C)n1)CC2
MEC [1]: 6.6 µM
metabolised at 0.25 h, 1 µM [2]: 30%
MEC [3]: 1 µM
IC50 [4]: > 50 µM
CC50 at 6 h [5]: > 24 µM
metabolised at 0.25 h, 1 µM [6]: 71%
MEC [7]: 0.2 µM

SMILES: CCCC[C@@H](CCO)Nc1nc(N)nc2c1CN(C(=O)c1cccs1)CC2
MEC [1]: 1.7 µM
metabolised at 0.25 h, 1 µM [2]: 37%
MEC [3]: 0.2 µM
IC50 [4]: 6.9 µM
CC50 at 6 h [5]: > 24 µM
metabolised at 0.25 h, 1 µM [6]: 90%
MEC [7]: 0.2 µM

MEC [1]: 0.8 µM
MEC [3]: 3.9 µM
Selectivity Index (Homo sapiens): 5
SMILES: CCCCNc1nc(N)nc2c1CCN(C(=O)c1ccccc1)C2
CC50 at 6 h [5]: > 24 µM

SMILES: CCCCNc1nc(N)nc2c1CN(C(=O)c1csc(C)n1)CC2
MEC [1]: 1.8 µM
MEC [3]: 2 µM
IC50 [4]: 1.3 µM
CC50 at 6 h [5]: > 24 µM
metabolised at 0.25 h, 1 µM [6]: 88%
MEC [7]: 0.53 µM

SMILES: CCC[C@@H](CCO)Nc1nc(N)nc2c1CN(C(=O)c1cccs1)CC2
MEC [1]: 1.1 µM
metabolised at 0.25 h, 1 µM [2]: 22%
MEC [3]: 0.2 µM
IC50 [4]: 7.6 µM
CC50 at 6 h [5]: > 24 µM
metabolised at 0.25 h, 1 µM [6]: 73%
MEC [7]: 0.2 µM
